ChEMBL document CHEMBL4177726, “Synthesis and anti-influenza virus evaluation of triterpene-sialic acid conjugates” (Bioorg Med Chem, 2018)

Columns and labels:
[1] = Inhibition of Influenza A virus A/Duck/313/4/78(H5N3) sialidase at 3.33 x 10^-4M preincubated for 15 mins followed by MUNA substrate addition measured after 15 mins by fluorescence assay relative to control
MDCK = experiment: Cytotoxicity against MDCK cells assessed as reduction in cell viability at 1 x 10^-5 M after 24 hrs by CCK8 assay; format: cell-based, Canis lupus familiaris; details: dog, 10 µM
[2] = molecular target: Neuraminidase (Influenza A virus (A/Puerto Rico/8/1934(H1N1))) (UniProt P03468); experiment: Inhibition of Influenza A virus A/PR/8/34(H1N1) sialidase at 3.33 x 10^-4M preincubated for 15 mins followed by MUNA substrate addition measured after 15 mins by fluorescence assay relative to control
Neuraminidase (Influenza A virus (A/Puerto Rico/8/1934(H1N1))), sequence (P03468 whole entry): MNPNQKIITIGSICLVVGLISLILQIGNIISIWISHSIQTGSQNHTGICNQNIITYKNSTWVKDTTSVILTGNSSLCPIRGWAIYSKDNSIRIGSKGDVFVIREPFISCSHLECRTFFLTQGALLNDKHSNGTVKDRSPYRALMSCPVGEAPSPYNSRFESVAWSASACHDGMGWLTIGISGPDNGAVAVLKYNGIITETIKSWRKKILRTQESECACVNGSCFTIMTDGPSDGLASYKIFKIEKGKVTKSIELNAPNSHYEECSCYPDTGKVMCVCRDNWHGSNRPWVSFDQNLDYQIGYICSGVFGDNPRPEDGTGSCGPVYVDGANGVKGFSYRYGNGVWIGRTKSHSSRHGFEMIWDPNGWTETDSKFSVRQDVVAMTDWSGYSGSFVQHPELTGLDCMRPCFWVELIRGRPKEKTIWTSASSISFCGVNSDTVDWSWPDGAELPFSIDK

[3] = molecular target: Neuraminidase (Influenza A virus (A/Memphis/1/1971(H3N2))) (UniProt P03471); experiment: Inhibition of Influenza A virus A/Memphis/1/71(H3N2) sialidase at 3.33 x 10^-4M preincubated for 15 mins followed by MUNA substrate addition measured after 15 mins by fluorescence assay relative to control
Neuraminidase (Influenza A virus (A/Memphis/1/1971(H3N2))), sequence (P03471 whole entry): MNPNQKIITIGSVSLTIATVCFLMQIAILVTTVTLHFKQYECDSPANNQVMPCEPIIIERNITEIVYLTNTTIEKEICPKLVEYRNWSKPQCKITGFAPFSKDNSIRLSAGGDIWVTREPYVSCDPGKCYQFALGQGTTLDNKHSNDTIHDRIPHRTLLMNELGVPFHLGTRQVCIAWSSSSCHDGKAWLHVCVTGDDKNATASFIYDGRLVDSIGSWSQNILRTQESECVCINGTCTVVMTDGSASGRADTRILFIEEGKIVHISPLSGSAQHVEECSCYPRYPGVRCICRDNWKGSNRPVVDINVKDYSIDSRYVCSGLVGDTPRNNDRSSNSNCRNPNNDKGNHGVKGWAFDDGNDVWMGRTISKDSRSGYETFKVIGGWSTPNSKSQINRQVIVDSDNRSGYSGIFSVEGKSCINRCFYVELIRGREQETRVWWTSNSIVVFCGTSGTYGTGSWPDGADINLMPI

Influenza A virus [4] = experiment: Antiviral activity against Influenza A virus A/PR/8/34(H1N1) infected in MDCK cells assessed as viral yield at 1 x 10^-5 M preincubated with virus for 1 hr followed by viral infection measured after 18 hrs by beta-galactosidase based fluorescence assay (reference value: 100%); format: functional, A/Puerto Rico/8/1934(H1N1)
Influenza A virus [5] = experiment: Antiviral activity against Influenza A virus A/PR/8/34(H1N1) infected in MDCK cells assessed as reduction in viral yield at 1 x 10^-5 M preincubated with virus for 1 hr followed by viral infection measured after 18 hrs by beta-galactosidase based fluorescence assay; format: functional, organism-based; details: A/Puerto Rico/8/1934(H1N1)

In the case of CC(=O)N[C@H]1[C@H]([C@H](O)[C@H](O)CO)O[C@@](O[C@H]2CC[C@]3(C)[C@H]4CC=C5[C@@H]6C[C@@](C)(CO)CC[C@]6(C)CC[C@@]5(C)[C@]4(C)CC[C@H]3C2(C)C)(C(=O)O)C[C@@H]1O, the inhibition [1] is reported as 57.6%, the Activity (MDCK) is reported as “Non-Toxic” and the inhibition [2] is reported as 71%. It also gave an inhibition [3] of 45% and an Activity (Influenza A virus [4]) of 88%.
For CC(=O)N[C@H]1[C@H]([C@H](O)[C@H](O)CO)O[C@](O[C@H]2CC[C@]3(C)[C@H]4CC=C5[C@@H]6C[C@@](C)(CO)CC[C@]6(C)CC[C@@]5(C)[C@]4(C)CC[C@H]3C2(C)C)(C(=O)O)C[C@@H]1O, the Activity (Influenza A virus [5]) was “Dose-dependent effect”, the inhibition [1] was 55.7% and the Activity (MDCK) was “Non-Toxic”. It also gave an inhibition [2] of 76.7%, an inhibition [3] of 68.7% and an Activity (Influenza A virus [4]) of 72.6%.
For CC(=O)N[C@H]1[C@H]([C@H](O)[C@H](O)CO)O[C@](O[C@H]2CC[C@]3(C)[C@H]4C(=O)C=C5[C@@H]6C[C@@](C)(C(=O)O)CC[C@]6(C)CC[C@@]5(C)[C@]4(C)CC[C@H]3C2(C)C)(C(=O)O)C[C@@H]1O, the inhibition [1] was 25.8%, the inhibition [2] was 21.1% and the inhibition [3] was 23.4%.
Work on CC(=O)N[C@H]1[C@H]([C@H](O)[C@H](O)CO)O[C@](O[C@H]2CC[C@]3(C)[C@H]4CC=C5[C@@H]6CC(C)(C)CC[C@]6(C(=O)O)CC[C@@]5(C)[C@]4(C)CC[C@H]3C2(C)C)(C(=O)O)C[C@@H]1O yielded an inhibition [1] of 34.6%, an inhibition [2] of 33.2% and an inhibition [3] of 26.5%.
With COC(=O)[C@]12CCC(C)(C)C[C@H]1C1=CC[C@@H]3[C@@]4(C)CC[C@H](O[C@@]5(C(=O)O)C[C@H](O)[C@@H](NC(C)=O)[C@H]([C@H](O)[C@H](O)CO)O5)C(C)(C)[C@@H]4CC[C@@]3(C)[C@]1(C)CC2 the Activity (Influenza A virus [5]) was “Dose-dependent effect”, the inhibition [1] was 70.7% and the Activity (MDCK) was “Non-Toxic”. For the same compound, the inhibition [2] was 89.9%, the inhibition [3] was 64.9% and the Activity (Influenza A virus [4]) was 46.7%.
Work on COC(=O)[C@@]1(C)CC[C@]2(C)CC[C@]3(C)C(=CC(=O)[C@@H]4[C@@]5(C)CC[C@H](O[C@]6(C(=O)O)C[C@H](O)[C@@H](NC(C)=O)[C@H]([C@H](O)[C@H](O)CO)O6)C(C)(C)[C@@H]5CC[C@]43C)[C@@H]2C1 yielded an inhibition [1] of 27.5%, an inhibition [2] of 52.2% and an inhibition [3] of 39.9%.
For CC(=O)N[C@H]1[C@H]([C@H](O)[C@H](O)CO)O[C@@](O[C@H]2CC[C@]3(C)[C@H]4C(=O)C=C5[C@@H]6C[C@@](C)(C(=O)O)CC[C@]6(C)CC[C@@]5(C)[C@]4(C)CC[C@H]3C2(C)C)(C(=O)O)C[C@@H]1O, the inhibition [1] was 16.4%, the inhibition [2] was 50.1% and the inhibition [3] was 27.4%.
CC(=O)N[C@H]1[C@H]([C@H](O)[C@H](O)CO)O[C@@](O[C@H]2CC[C@]3(C)[C@H]4C(=O)C=C5[C@@H]6C[C@@](C)(CO)CC[C@]6(C)CC[C@@]5(C)[C@]4(C)CC[C@H]3C2(C)C)(C(=O)O)C[C@@H]1O showed an inhibition [1] of 25.3%, an inhibition [2] of 50.3% and an inhibition [3] of 30.3%.
For CC(=O)N[C@H]1[C@H]([C@H](O)[C@H](O)CO)O[C@](O[C@H]2CC[C@]3(C)[C@H]4C(=O)C=C5[C@@H]6C[C@@](C)(CO)CC[C@]6(C)CC[C@@]5(C)[C@]4(C)CC[C@H]3C2(C)C)(C(=O)O)C[C@@H]1O, the inhibition [1] was 43.8%, the inhibition [2] was 35.8% and the inhibition [3] was 40.3%.
Work on COC(=O)[C@@]1(C)CC[C@]2(C)CC[C@]3(C)C(=CC(=O)[C@@H]4[C@@]5(C)CC[C@H](O[C@@]6(C(=O)O)C[C@H](O)[C@@H](NC(C)=O)[C@H]([C@H](O)[C@H](O)CO)O6)C(C)(C)[C@@H]5CC[C@]43C)[C@@H]2C1 yielded an inhibition [1] of 46.2%, an inhibition [2] of 35.4% and an inhibition [3] of 44.8%.
In the case of COC(=O)[C@]12CCC(C)(C)C[C@H]1C1=CC[C@@H]3[C@@]4(C)CC[C@H](O[C@]5(C(=O)O)C[C@H](O)[C@@H](NC(C)=O)[C@H]([C@H](O)[C@H](O)CO)O5)C(C)(C)[C@@H]4CC[C@@]3(C)[C@]1(C)CC2, the inhibition [1] is reported as 65.7%, the Activity (MDCK) is reported as “Non-Toxic” and the inhibition [2] is reported as 74.9%. The inhibition [3] was 70.7% and the Activity (Influenza A virus [4]) was 39.4%.
